Data published in PubChem BioAssay (NCI).
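All cell lines were grown in 96-well plates and treated with compound for 48 hours. TGI: concentration producing complete growth inhibition.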

What was measured:
Assay in all cases: NCI tumour cell line growth inhibition, 48 h
[1] = system: NCI-H522 lung
[2] = system: TK-10 renal
[3] = system: SK-MEL-2 melanoma
[4] = system: SK-MEL-28 melanoma
[5] = system: 786-0 renal
[6] = system: SF-539 CNS
[7] = system: EKVX NSCLC
[8] = system: A549 NSCLC
[9] = system: SNB-75 CNS
[10] = system: CCRF-CEM leukemia
[11] = system: SF-268 CNS
[12] = system: NCI-H460 lung
[13] = system: UACC-62 melanoma
[14] = system: RPMI-8226 leukemia
[15] = system: HOP-92 NSCLC
[16] = system: MDA-MB-435
[17] = system: MDA-MB-231 breast

CCOC(=O)c1cnc2c(ccc3[nH]cccc32)c1=O was tested, and the TGI [1] was greater than 100 µM, the TGI [2] was greater than 100 µM and the TGI [3] was greater than 100 µM. The TGI [4] was greater than 100 µM, the TGI [5] was greater than 100 µM and the TGI [6] was greater than 100 µM. For the same molecule, the TGI [7] was greater than 100 µM, the TGI [8] was greater than 100 µM and the TGI [9] was greater than 100 µM. For the same molecule, the TGI [10] was greater than 100 µM, the TGI [11] was greater than 100 µM and the TGI [12] was greater than 100 µM. It also gave a TGI [13] greater than 100 µM.
Work on CC1(C)S[C@H](CN)N[C@H]1C(=O)OC(c1ccccc1)c1ccccc1 yielded a TGI [14] of 54.2 µM, a TGI [15] of 91.6 µM and a TGI [1] of 83.4 µM. It also gave a TGI [2] greater than 100 µM, a TGI [3] of 93.3 µM and a TGI [16] greater than 100 µM. For the same molecule, the TGI [4] was greater than 100 µM, the TGI [5] was greater than 100 µM and the TGI [7] was greater than 100 µM. The TGI [8] was greater than 100 µM, the TGI [9] was greater than 100 µM and the TGI [17] was greater than 100 µM. It also gave a TGI [11] greater than 100 µM and a TGI [13] of 81.4 µM.
In the case of COC(=O)n1c(C)c(C=O)c2ccc(OC)cc21, the TGI [1] is reported as greater than 100 µM, the TGI [2] is reported as 67.6 µM and the TGI [3] is reported as greater than 100 µM. For the same molecule, the TGI [16] was 47.2 µM, the TGI [5] was greater than 100 µM and the TGI [6] was 55.2 µM. It also gave a TGI [7] greater than 100 µM, a TGI [8] greater than 100 µM and a TGI [9] greater than 100 µM. The TGI [10] was greater than 100 µM, the TGI [17] was greater than 100 µM and the TGI [12] was greater than 100 µM. For the same molecule, the TGI [13] was 57.1 µM.
C/C(=N/NC(=O)C[n+]1ccccc1)C(CN(CC(C)C)CC(C)C)C(=O)Nc1ccc(C)cc1C (stereo not drawn) gave a TGI [14] greater than 100 µM, a TGI [15] greater than 100 µM and a TGI [1] greater than 100 µM. The TGI [2] was greater than 100 µM, the TGI [3] was greater than 100 µM and the TGI [4] was greater than 100 µM. It also gave a TGI [5] greater than 100 µM, a TGI [6] greater than 100 µM and a TGI [7] greater than 100 µM. For the same molecule, the TGI [8] was greater than 100 µM, the TGI [10] was greater than 100 µM and the TGI [11] was greater than 100 µM. It also gave a TGI [12] greater than 100 µM and a TGI [13] greater than 100 µM.
With CCCCCCCCCCCCCCCCc1c(C(=O)OC)nc(NN)[nH]c1=O the TGI [14] was greater than 50 µM, the TGI [15] was greater than 50 µM and the TGI [1] was greater than 50 µM. The TGI [2] was greater than 50 µM, the TGI [3] was greater than 50 µM and the TGI [4] was greater than 50 µM. For the same molecule, the TGI [5] was greater than 50 µM, the TGI [6] was greater than 50 µM and the TGI [7] was greater than 50 µM. The TGI [8] was greater than 50 µM, the TGI [9] was greater than 50 µM and the TGI [10] was greater than 50 µM. For the same molecule, the TGI [11] was greater than 50 µM, the TGI [12] was greater than 50 µM and the TGI [13] was greater than 50 µM.
C/C(=N\NC(=S)NC(CCC(=O)O)C(=O)O)c1cnccn1 (stereo not drawn) showed a TGI [14] greater than 100 µM, a TGI [15] greater than 100 µM and a TGI [1] greater than 100 µM. For the same molecule, the TGI [2] was greater than 100 µM, the TGI [3] was greater than 100 µM and the TGI [4] was greater than 100 µM. For the same molecule, the TGI [5] was greater than 100 µM, the TGI [6] was greater than 100 µM and the TGI [7] was greater than 100 µM. It also gave a TGI [8] greater than 100 µM, a TGI [9] greater than 100 µM and a TGI [10] greater than 100 µM. The TGI [11] was greater than 100 µM, the TGI [12] was greater than 100 µM and the TGI [13] was greater than 100 µM.
Molecule CCOC(=O)CCC(NC(=O)c1ccc(N=Cc2nc3ccccc3nc2-c2ccccc2)cc1)C(=O)OCC (stereo not drawn) has a TGI [14] greater than 100 µM, a TGI [15] greater than 100 µM and a TGI [1] greater than 100 µM. It also gave a TGI [2] greater than 100 µM, a TGI [3] greater than 100 µM and a TGI [4] greater than 100 µM. For the same molecule, the TGI [5] was greater than 100 µM, the TGI [6] was greater than 100 µM and the TGI [7] was greater than 100 µM. It also gave a TGI [8] greater than 100 µM, a TGI [9] greater than 100 µM and a TGI [10] greater than 100 µM. It also gave a TGI [11] greater than 100 µM, a TGI [12] greater than 100 µM and a TGI [13] greater than 100 µM.
Molecule C[C@@]1(Cc2ccccc2)C(=O)N2[C@@H](CO)C(c3ccccc3)O[C@]2(C)c2ccccc21 (stereo partly drawn) has a TGI [14] greater than 100 µM, a TGI [15] greater than 100 µM and a TGI [1] greater than 100 µM. It also gave a TGI [2] greater than 100 µM, a TGI [3] greater than 100 µM and a TGI [4] greater than 100 µM. It also gave a TGI [5] greater than 100 µM, a TGI [6] greater than 100 µM and a TGI [7] greater than 100 µM. The TGI [8] was greater than 100 µM, the TGI [9] was greater than 100 µM and the TGI [10] was greater than 100 µM. The TGI [11] was greater than 100 µM and the TGI [13] was greater than 100 µM.
